Measured values: patent US20220112217A1, “PYRAZOLOPYRIMIDINE DERIVATIVE AND USE THEREOF AS PI3K INHIBITOR” (MEDSHINE DISCOVERY INC., priority 2018, published 2022)
Where two headings read alike, the source gives them in different places.

Legend:
[1] = biological target: PI3K gamma (Homo sapiens, UniProt P48736); experiment: In vitro enzyme activity assay (ADP-Glo lipid kinase), PI3K gamma; settings: PI3Kγ IC50, ATP 25 μM, PIP2:3PS 50 μM, 120 min
Method: (§1) An appropriate substrate and ATP were incubated at a suitable condition for lipid kinase reaction, followed by a two-step detection of kinase activity using an ADP-Glo™ kit. Step I: The kinase reaction was terminated and residual ATP was completely removed, leaving ADP only; Step II: A kinase assay reagent was added to convert ADP to ATP by a luciferin/luciferase reaction. Finally, a fluorescence output value was detected and converted into kinase activity.
(§2) • 2) Kit: ADP-Glo™ lipid kinase and PIP2:3PS kit (Promega #V1792)
(§3) The mixture was incubated at 23° C. for 20 min • (10) 2 μL of ATP solution was added, and the mixture was centrifuged at 1000 rpm and was shaken to mix well • (11) The plate was covered, shaken for about 30 s, and incubated for 2 h at 23° C. • (12) 5 μL of ADP-Glo reagent containing 10 mM MgCl2 was added • (13) The mixture was centrifuged at 1000 rpm for 10 s, covered and shaken for about 30 s, and incubated at 23° C. for 60 min • (14) 10 μL of kinase assay reagent was added • (15) The mixture was centrifuged at 1000 rpm for 10 s, and incubated at 23° C. for 60 min • (16) Fluorescence values were measured by an Envision system. • 2. […] The mixture was incubated at 37° C./CO2 for 10 min. • 5) The compound was removed by pipette. Lysis buffer was added at 50 μL/well, and the cells wereincubated on a shaker for 30 min. • 6) After the cells were completely lysed, 16 μL of lysate was transferred to a 384-well plate and 4 μL of prepared AC+D2 in the kit was added. (AC: Eu3+-cryptate antibody binds to phosphorylated AKT, while D2 binds to non-phosphorylated AKT) The mixture was incubated at room temperature for 4 h.

[2] = biological target: PI3K delta (Homo sapiens, UniProt O00329); experiment: In vitro enzyme activity assay (ADP-Glo lipid kinase), PI3K delta; settings: PI3Kδ IC50, ATP 40 μM, PIP2:3PS 50 μM, 120 min;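 also: kinase reaction run at 23 °C, then leftover ATP depleted and the ADP formed turned back into ATP, with the luciferin/luciferase signal read as kinase activity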
Chain of PI3K delta (O00329 whole entry): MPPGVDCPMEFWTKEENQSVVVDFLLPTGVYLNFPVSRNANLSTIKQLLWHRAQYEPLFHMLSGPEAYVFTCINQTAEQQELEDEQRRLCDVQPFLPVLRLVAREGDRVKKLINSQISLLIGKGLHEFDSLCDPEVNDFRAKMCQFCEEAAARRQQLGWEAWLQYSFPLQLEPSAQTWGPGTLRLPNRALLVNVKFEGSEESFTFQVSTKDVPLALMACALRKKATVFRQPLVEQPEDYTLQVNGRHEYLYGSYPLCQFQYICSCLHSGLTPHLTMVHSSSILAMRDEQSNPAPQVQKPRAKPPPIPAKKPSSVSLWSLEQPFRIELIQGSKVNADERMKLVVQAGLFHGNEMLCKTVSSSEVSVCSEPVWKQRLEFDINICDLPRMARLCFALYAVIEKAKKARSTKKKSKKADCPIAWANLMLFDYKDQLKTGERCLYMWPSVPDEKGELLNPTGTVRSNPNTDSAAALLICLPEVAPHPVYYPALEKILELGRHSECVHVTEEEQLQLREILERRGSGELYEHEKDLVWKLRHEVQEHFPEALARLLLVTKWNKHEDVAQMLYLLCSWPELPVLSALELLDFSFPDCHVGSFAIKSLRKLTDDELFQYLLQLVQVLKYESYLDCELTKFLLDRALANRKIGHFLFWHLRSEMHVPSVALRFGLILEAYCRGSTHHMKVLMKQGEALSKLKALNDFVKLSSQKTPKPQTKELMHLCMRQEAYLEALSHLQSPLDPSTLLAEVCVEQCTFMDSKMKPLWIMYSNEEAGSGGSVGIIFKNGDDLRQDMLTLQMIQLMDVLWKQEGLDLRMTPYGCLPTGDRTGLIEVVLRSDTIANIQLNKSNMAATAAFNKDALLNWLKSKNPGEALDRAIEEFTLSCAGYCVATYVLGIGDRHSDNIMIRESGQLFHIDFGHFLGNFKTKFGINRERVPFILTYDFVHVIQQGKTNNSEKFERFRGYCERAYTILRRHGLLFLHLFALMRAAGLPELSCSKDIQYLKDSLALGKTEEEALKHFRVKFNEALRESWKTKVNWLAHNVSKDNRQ
Chain of PI3K delta (P27986 whole entry partner): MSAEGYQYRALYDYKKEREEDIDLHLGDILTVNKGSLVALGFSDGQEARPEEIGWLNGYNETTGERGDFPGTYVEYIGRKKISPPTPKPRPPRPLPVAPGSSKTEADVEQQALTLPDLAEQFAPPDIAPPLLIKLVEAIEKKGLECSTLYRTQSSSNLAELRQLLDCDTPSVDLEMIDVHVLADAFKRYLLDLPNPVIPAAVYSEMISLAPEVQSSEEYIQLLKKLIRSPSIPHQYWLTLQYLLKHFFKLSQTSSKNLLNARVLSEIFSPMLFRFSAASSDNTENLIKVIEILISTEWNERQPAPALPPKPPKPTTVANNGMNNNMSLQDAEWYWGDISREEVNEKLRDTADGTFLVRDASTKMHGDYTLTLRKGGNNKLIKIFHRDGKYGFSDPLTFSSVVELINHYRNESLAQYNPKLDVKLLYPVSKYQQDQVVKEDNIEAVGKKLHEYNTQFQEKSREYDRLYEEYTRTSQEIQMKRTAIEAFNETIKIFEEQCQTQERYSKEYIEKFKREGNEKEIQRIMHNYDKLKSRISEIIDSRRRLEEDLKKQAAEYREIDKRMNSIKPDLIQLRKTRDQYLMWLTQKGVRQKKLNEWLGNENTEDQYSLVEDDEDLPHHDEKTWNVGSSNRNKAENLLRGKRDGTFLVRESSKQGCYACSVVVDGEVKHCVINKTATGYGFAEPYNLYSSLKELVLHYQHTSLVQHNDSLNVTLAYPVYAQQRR
Method: as §1, §2
The kit comprises: 1 mM PIP2:3PS, 10× lipid dilution buffer, 1 M magnesium chloride, 10 mM ATP, 10 mM ADP, ADP-Glo reagent, detection buffer and substrate. • 3) Plate: OptiPlate-384, white and transparent (PerkinElmer #6007299) Reagent preparation: • 1) 10x reaction buffer: 500 mM HEPES (4-(2-hydroxyethyl)-1-piperazineethanesulfonic acid), pH 7.5, 500 mM NaCl, 9 mM MgCl2; BSA: 10% stock solution, prepared in-house • 2) Condition for final test system: 1× reaction system: 50 mM HEPES, 50 mM NaCl, 3 mM MgCl2, 0.01% BSA (prepared on the day of experiment), 1% DMSO (v/v) +/−compound • 3) Reaction system: 3 μL of enzyme and substrate mixture (1:1) +2 μL of ATP/MgCl2 mixture +5 μL of ADP-Glo reagent +10 μL detection reagent.
The specific experimental procedures are as follows: • 1) Dilution: 50 nL of 100× compound/DMSO solution were transferred into a test plate using Echo • For PI3Kα, the compound was serially diluted by three fold from the highest concentration 0.111 mM to the 10th concentration. • For PI3Kβ/PI3Kδ/PI3Kγ, the compound was serially diluted by three fold from the highest concentration of 1.11 mM to the 10th concentration. • 2) Kinase reaction: • (1) The target compounds were prepared. 50 nL of 100× compound solution or DMSO was added to the corresponding plate • (2) A 3.33 × reaction buffer was prepared • (3) A 3.33× PIP2:3PS solution were prepared; the PIP2:3PS solution should be thawed by vortex for at least 1 min before use • (4) An ATP solution containing 5.25 mM MgCl2 was prepared • (5) 3.33× PI3Kα/PI3Kβ/PI3Kδ/PI3Kγ solutions were prepared • (6) The lipid kinase solution and PIP2:3PS solution were mixed at a volume ratio of 1:1 • (7) The 3.33 × lipid kinase buffer and PIP2:3PS solution were mixed at a volume ratio of 1:1 • (8) 3 μL of the mixed solution of reaction buffer and PIP2:3PS was added to Columns 1 and 2 of the plate • (9) 3 μL of the mixed solution of the enzyme and PIP2:3PS was added to the wells of the plate other than Columns 1 and 2, and was centrifuged for 10 s (1000 rpm). The mixture was incubated at 23° C. for 20 min • (10) 2 μL of ATP solution was added, and the mixture was centrifuged at 1000 rpm and was shaken to mix well • (11) The plate was covered, shaken for about 30 s, and incubated for 2 h at 23° C. • (12) 5 μL of ADP-Glo reagent containing 10 mM MgCl2 was added • (13) The mixture was centrifuged at 1000 rpm for 10 s, covered and shaken for about 30 s, and incubated at 23° C. for 60 min • (14) 10 μL of kinase assay reagent was added • (15) The mixture was centrifuged at 1000 rpm for 10 s, and incubated at 23° C. for 60 min • (16) Fluorescence values were measured by an Envision system. • 2.

[3] = In vivo DMPK study, single dose in female Balb/c mice; settings: for half-life: female, Balb/c, 1 mg/kg, note lists it as an intravenous parameter, read-out: T1/2 (half-life) (converted); for half-life / Cmax: mouse, plasma; for half-life / Oral DNAUC (dose-normalized area under curve): mice; for Cmax: oral 3 mg/kg, female Balb/c mice
Method: Objective: To evaluate the plasma concentration of the compounds and pharmacokinetics after a single dose in female Balb/c mice.
Procedures: 8 healthy adult female Balb/c mice were randomized, 4 for intravenous administration and 4 for oral administration. The compounds were mixed with a proper amount of vehicle for intravenous injection (DMSO/PEG200/water (5:45:50 v/v/v)). The mixture was vortexed and treated with ultrasound to give a 1.0 mg/mL clear solution. The clear solution was filtered through a microporous membrane filter for later use. For the oral group, the vehicle was 0.5% MC/0.2% Tween 80. The compound was mixed with the vehicle, and the mixture was vortexed and ultrasonically treated to give 1.0 mg/mL uniform suspension for later use. The mice were administered intravenously at 1 mg/kg or orally at 3 mg/kg. Whole blood was collected at certain time points, and plasma was separated. The drug concentration was measured by LC-MS/MS, and pharmacokinetic parameters were calculated using
Phoenix WinNonlin software (Pharsight, USA).

[4] = test system: TMD-8 cell; experiment: TMD-8 cell viability test (CellTiter-Glo, 72 h); assay type: cell-based; settings: Homo sapiens, TMD8
Method: 7) After incubation, readings at 620 and 665 nm on EnVingen were recorded. • <2> TMD-8 cell viability test • 1) Cell Culture
Cells were regularly passaged. Cells at logarithmic growth phase were transferred to the plate. • 2) Plating • (1). Cells were stained with trypan blue and viable cells were counted. • (2). Cell concentration was adjusted to 7000 cells/well • (3). 90 μL of cell suspension was added to each well of the plate and cell-free medium was added to blank control wells. • (4). The plate was incubated overnight at 37° C., 5% CO2 and 100% relative humidity in an incubator. • 3) Preparation of Plate Containing Compound Stock
(1). Preparation of plate containing 400× compound stock: Compounds were diluted from the highest concentration gradient to lowest concentration with DMSO. • 4) Preparation of 10× compound working solution and treatment • (1). Preparation of 10× compound working solution: 78 μL of cell culture medium was added to a V-bottom 96-well plate, and 2 μL of compound stock solution was pipetted from the plate containing 400× compound stock into the cell cultures of 96-well plate. 2 μL of DMSO was added to the vehicle control wells and blank control wells. After compounds or DMSO was added, the mixture was well mixed by a pipette. • (2). 10 μL of DMSO-cell culture medium mixture solution was added to the vehicle control wells and blank control wells. The final concentration of DMSO was 0.25%. • (3). The 96-well cell plate was incubated in the incubator for another 72 h. • 5) CellTiter-Glo Luminescent Cell Viability Assay
The following procedure was performed according to the instructions of Promega CellTiter-Glo luminescent cell viability assay kit (Promega-G7573). • (1). CellTiter-Glo buffer was thawed and let stand at room temperature. • (2). The CellTiter-Glo substrate was let stand at room temperature. • (3). The CellTiter-Glo buffer was added to a flask of CellTiter-Glo substrate to dissolve the substrate, thereby preparing a CellTiter-Glo working solution. • (4). The solution was vortexed to completely dissolve the substrate. • (5). The plate was incubated at room temperature for 30 min for equilibration. • (6). 50 μL (equal to half the volume of cell culture medium in each well) of CellTiter-Glo working solution was added to each well. The plate was covered by aluminum foil to avoid light. • (7). The plate was shaken on an orbital shaker for 2 min to induce cell lysis. • (8). The plate was let stand at room temperature for 10 min to stabilize the luminescence signals. • (9). The luminescence signals were detected on 2104 EnVision plate reader.

[5] = biological target: PI3K beta (Homo sapiens, UniProt P42338); experiment: In vitro enzyme activity assay (ADP-Glo lipid kinase), PI3K beta
Chain of PI3K beta (P42338 whole entry): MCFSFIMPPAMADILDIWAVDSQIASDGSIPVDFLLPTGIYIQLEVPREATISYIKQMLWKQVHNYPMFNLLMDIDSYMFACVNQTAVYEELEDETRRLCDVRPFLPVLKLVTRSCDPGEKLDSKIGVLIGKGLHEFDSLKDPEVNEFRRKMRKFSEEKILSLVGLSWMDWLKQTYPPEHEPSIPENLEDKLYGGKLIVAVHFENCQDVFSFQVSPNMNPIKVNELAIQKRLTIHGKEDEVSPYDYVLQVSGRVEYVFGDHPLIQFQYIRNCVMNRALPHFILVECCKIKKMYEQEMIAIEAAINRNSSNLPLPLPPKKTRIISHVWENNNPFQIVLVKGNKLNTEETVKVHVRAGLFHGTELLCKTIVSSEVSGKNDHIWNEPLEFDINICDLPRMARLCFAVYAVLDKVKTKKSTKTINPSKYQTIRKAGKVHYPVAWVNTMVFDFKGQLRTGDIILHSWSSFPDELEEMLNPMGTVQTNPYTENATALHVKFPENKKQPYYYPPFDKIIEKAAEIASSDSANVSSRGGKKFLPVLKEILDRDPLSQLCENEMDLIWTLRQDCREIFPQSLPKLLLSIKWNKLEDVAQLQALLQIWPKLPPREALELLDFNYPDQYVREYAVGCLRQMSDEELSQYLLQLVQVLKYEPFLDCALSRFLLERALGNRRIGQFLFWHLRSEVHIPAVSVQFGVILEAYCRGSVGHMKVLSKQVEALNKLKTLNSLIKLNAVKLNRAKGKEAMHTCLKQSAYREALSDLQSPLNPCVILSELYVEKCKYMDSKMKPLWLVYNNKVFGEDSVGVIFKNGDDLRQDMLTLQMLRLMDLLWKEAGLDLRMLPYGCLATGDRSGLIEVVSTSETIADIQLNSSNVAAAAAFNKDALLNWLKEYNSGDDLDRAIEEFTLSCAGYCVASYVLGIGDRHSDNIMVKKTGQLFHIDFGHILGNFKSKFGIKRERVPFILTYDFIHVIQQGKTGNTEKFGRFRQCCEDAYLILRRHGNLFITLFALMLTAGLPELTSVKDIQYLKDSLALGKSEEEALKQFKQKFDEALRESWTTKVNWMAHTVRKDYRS
Chain of PI3K beta (P27986 whole entry partner): as the sequence (P27986 whole entry partner) above
Method: as §1, §2, §3

[6] = biological target: PI3K alpha (Homo sapiens, UniProt P42336); experiment: In vitro enzyme activity assay (ADP-Glo lipid kinase), PI3K alpha
Chain of PI3K alpha (P42336 whole entry): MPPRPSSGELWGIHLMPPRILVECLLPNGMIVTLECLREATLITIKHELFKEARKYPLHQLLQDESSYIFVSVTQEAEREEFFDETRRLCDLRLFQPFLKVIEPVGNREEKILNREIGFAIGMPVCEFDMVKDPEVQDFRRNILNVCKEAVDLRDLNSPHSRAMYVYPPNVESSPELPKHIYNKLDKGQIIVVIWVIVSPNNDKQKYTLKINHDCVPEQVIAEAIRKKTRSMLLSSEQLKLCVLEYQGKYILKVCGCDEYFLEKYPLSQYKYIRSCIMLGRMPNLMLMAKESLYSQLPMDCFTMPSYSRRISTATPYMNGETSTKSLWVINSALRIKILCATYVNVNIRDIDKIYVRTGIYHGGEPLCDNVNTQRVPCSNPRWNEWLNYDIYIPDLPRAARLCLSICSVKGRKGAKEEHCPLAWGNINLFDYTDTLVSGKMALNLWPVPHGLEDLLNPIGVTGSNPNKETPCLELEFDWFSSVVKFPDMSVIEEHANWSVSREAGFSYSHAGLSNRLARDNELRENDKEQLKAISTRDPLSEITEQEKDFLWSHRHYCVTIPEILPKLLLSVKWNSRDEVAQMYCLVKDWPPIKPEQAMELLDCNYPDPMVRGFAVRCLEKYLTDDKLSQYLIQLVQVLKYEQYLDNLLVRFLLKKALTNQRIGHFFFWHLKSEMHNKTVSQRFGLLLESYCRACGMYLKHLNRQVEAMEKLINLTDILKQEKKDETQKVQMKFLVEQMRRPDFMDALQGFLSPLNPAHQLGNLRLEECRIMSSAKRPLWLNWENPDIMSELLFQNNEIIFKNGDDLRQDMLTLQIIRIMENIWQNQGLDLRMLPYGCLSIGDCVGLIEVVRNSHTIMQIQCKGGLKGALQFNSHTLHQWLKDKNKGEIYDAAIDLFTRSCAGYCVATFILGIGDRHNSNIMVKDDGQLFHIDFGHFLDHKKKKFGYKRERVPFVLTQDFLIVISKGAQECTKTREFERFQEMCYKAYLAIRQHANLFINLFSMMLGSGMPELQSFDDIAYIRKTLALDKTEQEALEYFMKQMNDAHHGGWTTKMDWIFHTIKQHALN
Chain of PI3K alpha (P27986 whole entry partner): as the sequence (P27986 whole entry partner) above
Method: as §1, §2, §3

Chain of PI3K gamma (P48736 whole entry): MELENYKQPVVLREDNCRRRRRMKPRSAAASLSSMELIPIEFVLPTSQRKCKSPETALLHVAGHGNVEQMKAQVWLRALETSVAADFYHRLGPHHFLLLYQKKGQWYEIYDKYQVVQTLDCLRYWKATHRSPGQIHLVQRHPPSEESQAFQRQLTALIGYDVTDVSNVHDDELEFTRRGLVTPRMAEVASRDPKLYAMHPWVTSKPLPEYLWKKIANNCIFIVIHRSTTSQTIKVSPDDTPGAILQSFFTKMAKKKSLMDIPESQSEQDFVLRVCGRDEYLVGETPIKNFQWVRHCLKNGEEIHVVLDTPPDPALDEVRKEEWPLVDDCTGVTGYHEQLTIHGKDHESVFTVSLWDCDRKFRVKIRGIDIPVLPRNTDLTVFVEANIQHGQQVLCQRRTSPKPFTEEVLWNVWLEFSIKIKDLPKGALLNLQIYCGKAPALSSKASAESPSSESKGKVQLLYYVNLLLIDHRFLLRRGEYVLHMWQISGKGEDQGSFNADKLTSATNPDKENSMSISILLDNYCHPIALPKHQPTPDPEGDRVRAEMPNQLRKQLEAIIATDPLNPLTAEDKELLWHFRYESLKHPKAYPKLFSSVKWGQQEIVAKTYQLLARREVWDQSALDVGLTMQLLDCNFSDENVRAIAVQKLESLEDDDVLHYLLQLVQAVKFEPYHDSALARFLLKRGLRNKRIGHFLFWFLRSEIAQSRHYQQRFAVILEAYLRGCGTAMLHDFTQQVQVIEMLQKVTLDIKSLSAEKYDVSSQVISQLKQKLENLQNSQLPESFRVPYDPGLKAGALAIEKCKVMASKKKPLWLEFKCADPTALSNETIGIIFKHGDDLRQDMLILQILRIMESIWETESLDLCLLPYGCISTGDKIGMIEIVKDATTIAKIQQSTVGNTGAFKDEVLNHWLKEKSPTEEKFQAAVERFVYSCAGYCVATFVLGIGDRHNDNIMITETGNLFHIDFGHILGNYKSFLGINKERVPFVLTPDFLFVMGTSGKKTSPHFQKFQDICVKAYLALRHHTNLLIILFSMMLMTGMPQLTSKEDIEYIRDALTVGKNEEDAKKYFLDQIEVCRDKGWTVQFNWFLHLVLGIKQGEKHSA

Row | Compound | IC50 [1] [nM] | IC50 [2] [nM] | also measured
1 | CC(C)Oc1ncc(-c2nn(C(C)c3nc4ccc(F)cn4c(=O)c3-c3cccc(F)c3)c3ncnc(N)c23)s1 (stereo not drawn) [WX048] | 2030 | 72.5 | 
2 | CC(c1nc2ccc(F)cn2c(=O)c1-c1cccc(F)c1)n1nc(-c2cnc(N(C)C)s2)c2c(N)ncnc21 (stereo not drawn) [WX046] | 494 | 3.48 | half-life [3]: 1.73 h; Cmax [3]: 1560 nM; Oral DNAUC (dose-normalized area under curve) [3]: 1648 nM · h/mpk
3 | COc1ccc(-c2nn(C(C)c3nc4ccc(F)cn4c(=O)c3-c3cccc(F)c3)c3ncnc(N)c23)cn1 (single isomer, unassigned) [WX011] | > 10000 | 604 | 
4 | CC(c1nc2ccc(F)cn2c(=O)c1-c1cccc(F)c1)n1nc(-c2cnc(OCC(F)F)s2)c2c(N)ncnc21 (stereo not drawn) [WX016] | 260 | 41.5 | IC50 [4]: 4110 nM; half-life [3]: 3.85 h; Cmax [3]: 2180 nM; Oral DNAUC (dose-normalized area under curve) [3]: 5599 nM · h/mpk
5 | CC(c1nc2ccc(F)cn2c(=O)c1-c1cccc(F)c1)n1nc(-c2cnc(OC3CC(F)(F)C3)s2)c2c(N)ncnc21 (stereo not drawn) [WX020] | 275 | 491 | IC50 [4]: > 50000 nM
6 | CNc1ncc(-c2nn(C(C)c3nc4ccc(F)cn4c(=O)c3-c3cccc(F)c3)c3ncnc(N)c23)s1 (stereo not drawn) [WX034] | 408 | 4 | 
7 | CC(C)Oc1ccc(-c2nn(C(C)c3nc4ccc(F)cn4c(=O)c3-c3cccc(F)c3)c3ncnc(N)c23)cc1F (single isomer, unassigned) [WX002] | > 10000 | > 1000 | IC50 ([5]; read-out: PI3Kβ IC50, ATP 40 μM, PIP2:3PS 50 μM, 120 min): > 10000 nM; IC50 ([6]; read-out: PI3Kα IC50, ATP 40 μM, PIP2:3PS 50 μM, 120 min): > 10000 nM
8 | CC(c1nc2ccc(F)cn2c(=O)c1-c1cccc(F)c1)n1nc(-c2cnc(OCC(F)(F)F)s2)c2c(N)ncnc21 (stereo not drawn) [WX028] | 2940 | 330 | 
9 | COc1ccc(-c2nn(C(C)c3nc4ccc(F)cn4c(=O)c3-c3cccc(F)c3)c3ncnc(N)c23)cc1F (stereo not drawn) [WX009] | > 10000 | > 1000 | 
10 | CC(C)Oc1ncc(-c2nn(C(C)c3nc4ccc(F)cn4c(=O)c3-c3cccc(F)c3)c3ncnc(N)c23)cc1C#N (single isomer, unassigned) [WX024] | 7170 | 313 | 
11 | CC(c1nc2ccc(F)cn2c(=O)c1-c1cccc(F)c1)n1nc(-c2cnc(OC3CC3)s2)c2c(N)ncnc21 (stereo not drawn) [WX030] | 1190 | 45.6 | 
12 | Cc1ncc(-c2nn(C(C)c3nc4ccc(F)cn4c(=O)c3-c3cccc(F)c3)c3ncnc(N)c23)s1 (stereo not drawn) [WX050] | 582 | 13.9 | half-life [3]: 2.38 h; Cmax [3]: 1260 nM; Oral DNAUC (dose-normalized area under curve) [3]: 1513 nM · h/mpk
13 | COc1ncc(-c2nn(C(C)c3nc4ccc(F)cn4c(=O)c3-c3cccc(F)c3)c3ncnc(N)c23)s1 (single isomer, unassigned) [WX008] | > 10000 | 783 | 
14 | COc1ncc(-c2nn(C(C)c3nc4ccc(F)cn4c(=O)c3-c3cccc(F)c3)c3ncnc(N)c23)cc1C#N (single isomer, unassigned) [WX006] | > 10000 | > 1000 | 
15 | COCCOc1ncc(-c2nn(C(C)c3nc4ccc(F)cn4c(=O)c3-c3cccc(F)c3)c3ncnc(N)c23)s1 (stereo not drawn) [WX018] | 1550 | 122 | IC50 [4]: 3420 nM; half-life [3]: 1.4 h; Cmax [3]: 2240 nM; Oral DNAUC (dose-normalized area under curve) [3]: 1244 nM · h/mpk
16 | Cc1cccc2nc(C(C)n3nc(-c4ccc(OC(C)C)c(F)c4)c4c(N)ncnc43)c(-c3cccc(F)c3)c(=O)n12 (stereo not drawn) [WX040] | 455 | 271 | 
17 | CC(c1nc2ccc(F)cn2c(=O)c1-c1cccc(F)c1)n1nc(-c2cnc(C(C)(C)C)s2)c2c(N)ncnc21 (stereo not drawn) [WX032] | 1740 | 16.3 | half-life [3]: 18.4 h; Cmax [3]: 1500 nM; Oral DNAUC (dose-normalized area under curve) [3]: 2662 nM · h/mpk
18 | CC(C)Oc1ncc(-c2nn(C(C)c3nc4ccc(F)cn4c(=O)c3-c3cccc(F)c3)c3ncnc(N)c23)cc1C#N (single isomer, unassigned) [WX025] | 1130 | 461 | 
19 | CC(C)Oc1ccc(-c2nn(C(C)c3nc4c(Cl)cc(F)cn4c(=O)c3-c3cccc(F)c3)c3ncnc(N)c23)cc1F (stereo not drawn) [WX014] | 620 | 229 | 
20 | CSc1ccc(-c2nn(C(C)c3nc4ccc(F)cn4c(=O)c3-c3cccc(F)c3)c3ncnc(N)c23)cn1 (stereo not drawn) [WX036] | 1210 | 66.6 | 
21 | CC(C)Oc1ccc(-c2nn(C(C)c3nc4ccc(F)cn4c(=O)c3-c3cccc(F)c3)c3ncnc(N)c23)cn1 (single isomer, unassigned) [WX003] | > 10000 | > 1000 | 
22 | CC(c1nc2ccc(F)cn2c(=O)c1-c1cccc(F)c1)n1nc(-c2cnc3c(c2)OCCO3)c2c(N)ncnc21 (stereo not drawn) [WX056] | 735 | 188 | IC50 [5]: > 10000 nM; IC50 [6]: > 10000 nM; Cmax [3]: 4950 nM; Oral DNAUC (dose-normalized area under curve) [3]: 2037 nM · h/mpk
23 | Cc1nc(C)c(-c2nn(C(C)c3nc4ccc(F)cn4c(=O)c3-c3cccc(F)c3)c3ncnc(N)c23)s1 (stereo not drawn) [WX022] | 9860 | 601 | 
24 | CC(C)Oc1ccc(-c2nn(C(C)c3nc4c(F)cccn4c(=O)c3-c3cccc(F)c3)c3ncnc(N)c23)cc1F (single isomer, unassigned) [WX013] | 573 | 297 | 
